Assays:
Format in all cases: functional, cell-based
P388 [1] = test: cells; conditions: Mus musculus
[2] = Cytotoxicity against human KB3-1 cells by MTT method; conditions: KB 3-1
[3] = Cytotoxicity against human KBV1 cells by MTT method; conditions: KB-V1
[4] = Cytotoxicity against human RPMI8402 cells by MTT method; conditions: RPMI 8402
P388 [5] = test: Cytotoxicity against mouse P388 cells by MTT method
[6] = Cytotoxicity against camptothecin-resistant human CPT-K5 cells by MTT method
[7] = Cytotoxicity against human KBH5.0 cells by MTT method; conditions: KBH5.0 cell

| SMILES | IC50 (P388 [1]) [nM] | IC50 [2] [nM] | IC50 [3] [nM] | IC50 [4] [nM] | IC50 (P388 [5]) [nM] | IC50 [6] [nM] | IC50 [7] [nM] |
| --- | --- | --- | --- | --- | --- | --- | --- |
| CC[C@@]1(O)C(=O)OCc2c1cc1n(c2=O)Cc2cc3ccccc3nc2-1 [CAMPTOTHECIN] | > 10000 | 15 | – | 4 | 4 | – | – |
| CCc1c2c(nc3ccc(OC(=O)N4CCC(N5CCCCC5)CC4)cc13)-c1cc3c(c(=O)n1C2)COC(=O)[C@]3(O)CC [IRINOTECAN] | – | 680 | 40000 | – | – | – | 7400 |
| COc1cc2cc(C(=O)N(C)C)c3c4cc5c(cc4ncc3c2cc1OC)OCO5 | > 10000 | 1200 | 4000 | 1600 | 980 | > 10000 | 3600 |
| CCOC(=O)c1cc2cc(OC)c(OC)cc2c2cnc3cc4c(cc3c12)OCO4 | > 10000 | > 10000 | > 10000 | 10000 | 4000 | > 10000 | > 10000 |
| COc1cc2cc(CC[N+](=O)[O-])c3c4cc5c(cc4ncc3c2cc1OC)OCO5 | > 10000 | 150 | 360 | 60 | 70 | > 10000 | 320 |
| COc1cc2cc(CCN)c3c4cc5c(cc4ncc3c2cc1OC)OCO5 | 180 | 20 | 500 | 32 | 14 | 200 | 110 |
| COc1cc2cc(CN)c3c4cc5c(cc4ncc3c2cc1OC)OCO5 | 300 | 30 | 160 | 120 | 26 | 2100 | 210 |
| CC[C@@]1(O)C(=O)OCc2c1cc1n(c2=O)Cc2cc3c(CN(C)C)c(O)ccc3nc2-1 [TOPOTECAN] | > 10000 | 40 | 440 | 210 | – | – | – |
| COc1cc2cc(CO)c3c4cc5c(cc4ncc3c2cc1OC)OCO5 | > 10000 | 150 | 400 | 120 | 60 | > 10000 | 400 |

Further lines, with some results ahead:

| IC50 (P388 [1]) [nM] | SMILES | IC50 [2] [nM] | IC50 [3] [nM] | IC50 [4] [nM] | IC50 (P388 [5]) [nM] | IC50 [6] [nM] | IC50 [7] [nM] |
| --- | --- | --- | --- | --- | --- | --- | --- |
| 230 | COc1cc2c(=O)n(CCN(C)C)c3c4cc5c(cc4ncc3c2cc1OC)OCO5 | 5 | 5 | – | – | – | – |
| 350 | COc1cc2cc(/C=C/CN(C)C)c3c4cc5c(cc4ncc3c2cc1OC)OCO5 | 30 | 330 | 35 | 40 | 350 | 70 |
| 10000 | COc1cc2cc(/C=C/[N+](=O)[O-])c3c4cc5c(cc4ncc3c2cc1OC)OCO5 | 180 | 450 | 550 | 180 | > 10000 | 420 |
| 180 | COc1cc2cc(CCN(C)C)c3c4cc5c(cc4ncc3c2cc1OC)OCO5 | 21 | 60 | 20 | 15 | 330 | 40 |
| 10000 | COc1cc2cc(C=O)c3c4cc5c(cc4ncc3c2cc1OC)OCO5 | 130 | 300 | 100 | 120 | > 10000 | 290 |
| > 10000 | COc1cc2cc(C(N)=O)c3c4cc5c(cc4ncc3c2cc1OC)OCO5 | 55 | 400 | 140 | 35 | > 10000 | 2700 |
| 2000 | COc1cc2cc(CN(C)C)c3c4cc5c(cc4ncc3c2cc1OC)OCO5 | 60 | 250 | 100 | 100 | 2700 | 290 |
| > 10000 | CNC(=O)c1cc2cc(OC)c(OC)cc2c2cnc3cc4c(cc3c12)OCO4 | 230 | 420 | 280 | – | > 10000 | 480 |
| 200 | COc1cc2cc(CCCN(C)C)c3c4cc5c(cc4ncc3c2cc1OC)OCO5 | 35 | 400 | 60 | 40 | 290 | 130 |
| 260 | COc1cc2cc(C(=O)NCCN(C)C)c3c4cc5c(cc4ncc3c2cc1OC)OCO5 | 27 | 1400 | 35 | 15 | 630 | 200 |
